# Results reported in EP1891948A1, “Treatment of neurological and neuropsychological disorders” (Probiodrug AG, priority 2000, dated 2002).
# What was measured:
# WistarF/Han (WF) rats [1] = assay: Social interaction (SI) test with Y1R antagonist pre-treatment (Example 4); type: in vivo; conditions: i.c.v., isoleucyl thiazolidine 50nmol and/or NPY 0.8nmol, without antagonist; Fig. 10
# Protocol: (§1) Animals. Male WistarF/Han (WF) rats (Central Animal Laboratory, Hannover Medical School, Hannover, Germany, see http://www.mh-hannover.de/institut/tierlabor/wf.htm for details), weighing 330±31 g±SD, were housed in a sound-proof, temperature controlled (24.0±0.5°C) room under specific pathogen free conditions with a 12/12h dark/light cycle (lights on at 07.00 with illumination level of 80 Lux). Food (Altromin lab chow pellets) and tap water were available ad libitum. Under ketamine/xylasine (100/5 mg/kg, i.p.) anesthesia, the rats were fixed in a Kopf stereotaxic frame and implanted with cannulae (Plastic One, Inc., Roanoke, VA, USA) above the lateral ventricle. All research and animal care procedures were approved by the Lower Saxony district government (Hannover, Germany) and followed principles described in the European Community's Council Directive of 24 November 1986 (86/609/EEC).
# Surgery and i.c.v. application. […]
# Animals were randomly divided into eight experimental groups (n=6-8/group), which completed one SI test of anxiety: (1) aCSF+aCSF+aCSF; (2) BIBP+aCSF+aCSF; (3) aCSF+isoleucyl thiazolidine+aCSF; (4) BIBP+isoleucyl thiazolidine+aCSF; (5) aCSF+aCSF+NPY; (6) BIBP+aCSF+NPY; (7) aCSF+P32/89+NPY; (8) BIBP+isoleucyl thiazolidine+NPY. […] The time spent in active social interaction (SI-time), 1h, and 12h food-intake were measured. […]
# Social interaction (SI) test. […] Behavior was monitored using a video camera placed above the field inside the testing/isolation box. The SI behavior of both rats was recorded on-line from a monitor placed outside on top of the box. The following parameters were scored by an observer (HPN) unaware of the substrain of rats: duration of time spent in sniffing, following, crawling under and over other rats, but not passive body contact (resting, sleeping). […]
# Statistical analysis. Data obtained from the measures SI time and 1h food intake were analyzed by one-way (factor: "treatment") ANOVA. […]
# WistarF/Han (WF) rats [2] = assay: 1h and 12h food intake after combined i.c.v. treatment (Example 3); type: in vivo; conditions: Fig. 8
# Protocol: as §1, with “330-370g,” for “330±31 g±SD,”
# Surgery and i.c.v. application. For surgery, rats were anesthetized and prepared with i.c.v. cannulae (coordinates: A:-0.7mm caudal, L:1.4mm lateral to bregma; and V3.2mm ventral to the skull surface; tooth bar +3.0 above ear bars) using standard stereotaxic procedures as described in detail elsewhere (von Hörsten et al., 1998a,b,c). After a 7-day recovery period, successful ventricle cannulation was confirmed by an angiotensin drinking response (von Hörsten et al., 1998a). Rats showing a positive drinking response (n=59) were then habituated to experimental handling by daily sham injections for seven days.
# Animals were randomly divided into two sets of four experimental groups (n=5-6/group), which completed different consecutive SI test of anxiety. […] The time spent in active social interaction (SI-time), 1h and 12h food-intake were measured. […]
# Statistical analysis. Data from repeated observations (food intake) were analyzed by two-way analyses of variance for repeated measures (ANOVA) (factors: "substrain" and "food intake" as repeated measure). Data obtained from simple measures such as DP IV activity or SI time were analyzed by one-way (factor: "substrain") ANOVA. […]
compound,measurement,setting,value
CCC(C)C(N)C(=O)N1CCSC1 (stereo not drawn) [isoleucyl thiazolidine],anxiolytic-like effect in the SI test (SI-time),WistarF/Han (WF) rats [1],acts not anxiolytic-like
same,dose at which the 1h feeding effect reaches significance,WistarF/Han (WF) rats [2],0.05 nmol
same,amount of food eaten within 1h,"WistarF/Han (WF) rats [2]; single agents or combination, isoleucyl thiazolidine 5pmol-500nmol, NPY 50pmol-1.6nmol",mild feeding effect
